Results as given in patent publication US11214803B2, “Modulators of YAP1 expression” (Ionis Pharmaceuticals, Inc., priority 2019, dated 2022).
Strand notation (5' to 3'): a small letter for the sugar, then the base; units joined by * are phosphorothioate-linked, units joined directly phosphodiester-linked; [ ] holds rarer units or linkages, { } end groups; capitals alone tell only the bases. k = constrained ethyl (cEt); [5mC] = 5-methylcytosine; d = 2'-deoxy (DNA)

System: Yap1 mRNA
Assay: Antisense inhibition of human Yap1 in A-431 cells by cEt gapmers, single dose (Example 4, RTS4814)
Format: cell-based
Method in brief: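 A-431 cells took up 3-10-3 cEt gapmers (16-mer, full phosphorothioate, 5-methylcytosines) by free uptake at 2,000 nM for about 48 h. Yap1 mRNA was quantified by qRT-PCR, normalized to total RNA (RIBOGREEN), and reported as % of untreated control.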

[1] = Table 14, A-431 cells, 5,000 cells per well, free uptake, 2,000 nM, approximately 48 hours, RTS4814, normalized to RIBOGREEN, Yap1 mRNA relative to untreated control, * = targets amplicon region of primer probe set
[2] = Table 16, A-431 cells, 5,000 cells per well, free uptake, 2,000 nM, approximately 48 hours, RTS4814, normalized to RIBOGREEN, Yap1 mRNA relative to untreated control cells
[3] = Table 17, A-431 cells, 5,000 cells per well, free uptake, 2,000 nM, approximately 48 hours, RTS4814, normalized to RIBOGREEN, Yap1 mRNA relative to untreated control cells
[4] = Table 15, A-431 cells, 5,000 cells per well, free uptake, 2,000 nM, approximately 48 hours, RTS4814, normalized to RIBOGREEN, Yap1 mRNA relative to untreated control, * = targets amplicon region of primer probe set
[5] = Yap1 mRNA remaining as percent of untreated control, 3-10-3 cEt gapmers, A-431 cells, Table 36
[6] = Yap1 mRNA remaining as percent of untreated control, 3-10-3 cEt gapmers, A-431 cells, Table 37
[7] = table after Table 37, headed TABLE 32 (gapmers targeting SEQ ID NO.: 3), A-431 cells, free uptake, 2,000 nM, approximately 48 hours, RTS4814

1075008 (antisense kT*kA*kA*dT*d[5mC]*dG*dA*dA*d[5mC]*dA*dT*dT*dG*kT*kG*kT) [Compound 1075008]
YAP1 (% UTC) [1]: 61 % UTC

1075682 (kG*kA*kT*dA*dA*dT*dT*dA*dT*dT*dA*d[5mC]*d[5mC]*k[5mC]*k[5mC]*kT; antisense) [Compound 1075682]
YAP1 (% UTC) [2]: 35 % UTC

1074112 (kT*k[5mC]*k[5mC]*dA*dA*d[5mC]*dT*d[5mC]*d[5mC]*d[5mC]*dT*dT*dG*kA*k[5mC]*kG; antisense) [Compound 1074112]
YAP1 (% UTC) [1]: 83 % UTC

1074467 (k[5mC]*kA*k[5mC]*d[5mC]*dG*dA*d[5mC]*d[5mC]*d[5mC]*dT*dG*d[5mC]*d[5mC]*kA*kA*kA; antisense) [Compound 1074467]
YAP1 (% UTC) [3]: 31 % UTC

1074115 (antisense kA*kG*kA*dA*d[5mC]*dT*dT*dT*dT*dT*d[5mC]*d[5mC]*d[5mC]*kT*k[5mC]*k[5mC]) [Compound 1074115]
YAP1 (% UTC) [3]: 33 % UTC

1075041 (antisense kG*kA*kT*dT*dA*dT*dA*dA*dA*dG*dA*dG*dG*k[5mC]*kT*k[5mC]) [Compound 1075041]
YAP1 (% UTC) [4]: 5 % UTC

1075574 (antisense kA*kG*kT*d[5mC]*dA*dA*dG*dG*dA*dA*d[5mC]*d[5mC]*dT*kT*k[5mC]*kT) [compound 1075574]
YAP1 (% UTC) [5]: 47 % UTC

1075233 (antisense kG*kT*kA*dA*dT*dT*dT*dA*dT*d[5mC]*dA*dG*d[5mC]*k[5mC]*kA*kT) [Compound 1075233]
YAP1 (% UTC) [4]: 2 % UTC

1074327 (antisense kT*kA*k[5mC]*dG*d[5mC]*dA*dG*dG*dG*d[5mC]*dT*dA*dA*k[5mC]*kT*k[5mC]) [compound 1074327]
YAP1 (% UTC) [6]: 39 % UTC

1074657 (antisense kT*k[5mC]*k[5mC]*d[5mC]*d[5mC]*d[5mC]*d[5mC]*dA*dG*dA*d[5mC]*dT*dT*kA*kA*kT) [Compound 1074657]
YAP1 (% UTC) [4]: 59 % UTC

1074902 (antisense k[5mC]*kT*kA*dT*dT*dA*dA*d[5mC]*dT*dT*dT*dT*dG*kG*kG*k[5mC]) [compound 1074902]
YAP1 (% UTC) [5]: 54 % UTC

1075414 (antisense k[5mC]*kA*kT*dA*d[5mC]*dT*dA*dA*dT*d[5mC]*d[5mC]*d[5mC]*dT*k[5mC]*kT*kT) [compound 1075414]
YAP1 (% UTC) [5]: 41 % UTC

1076259 (kA*kT*kT*dT*dA*dA*d[5mC]*dT*d[5mC]*d[5mC]*dT*dG*dA*kA*kG*kT; antisense) [Compound 1076259]
YAP1 (% UTC) [3]: 61 % UTC

1074886 (k[5mC]*kA*kG*dG*dG*d[5mC]*dT*dA*dA*d[5mC]*dT*d[5mC]*d[5mC]*kT*kG*k[5mC]; antisense) [compound 1074886]
YAP1 (% UTC) [7]: 104 % UTC

1076000 (k[5mC]*k[5mC]*kT*dA*dA*dT*dA*dT*dG*dA*d[5mC]*dT*d[5mC]*k[5mC]*kT*kT; antisense) [Compound 1076000]
YAP1 (% UTC) [1]: 4 % UTC

1075489 (antisense kG*kA*kG*d[5mC]*dA*dA*d[5mC]*dA*dA*d[5mC]*dT*dA*dT*kG*kA*kG) [Compound 1075489]
YAP1 (% UTC) [4]: 51 % UTC

1075959 (kG*kA*kT*dT*dA*dT*dT*dA*dT*dT*dG*d[5mC]*dA*kG*k[5mC]*kT; antisense) [compound 1075959]
YAP1 (% UTC) [6]: 15 % UTC

1074295 (antisense kT*kG*kG*dT*dT*dG*dG*dA*dG*dT*dT*dG*d[5mC]*kT*kG*k[5mC]) [compound 1074295]
YAP1 (% UTC) [6]: 15 % UTC

1074881 (k[5mC]*kT*kA*dA*d[5mC]*dT*d[5mC]*d[5mC]*dT*dG*d[5mC]*d[5mC]*dG*kA*kA*kG; antisense) [compound 1074881]
YAP1 (% UTC) [7]: 76 % UTC

1076342 (antisense k[5mC]*kA*kT*dT*dA*dA*d[5mC]*dT*dA*d[5mC]*dA*dA*d[5mC]*kT*kG*kT) [compound 1076342]
YAP1 (% UTC) [5]: 33 % UTC

1075201 (antisense k[5mC]*kT*kT*dT*dA*dA*dA*dG*d[5mC]*d[5mC]*d[5mC]*dT*dA*kA*kT*kT) [Compound 1075201]
YAP1 (% UTC) [4]: 114 % UTC

1074656 (antisense kG*kA*k[5mC]*dT*dT*dA*dA*dT*dT*d[5mC]*dA*dA*dG*kA*kT*kT) [Compound 1074656]
YAP1 (% UTC) [1]: 31 % UTC

1075798 (kA*kT*kT*dT*dA*dG*dA*dT*dA*dG*dT*dT*dA*k[5mC]*kT*kG; antisense) [compound 1075798]
YAP1 (% UTC) [5]: 21 % UTC

1076278 (kA*kA*kT*dA*dA*dG*dG*dA*d[5mC]*dA*dG*dG*dA*k[5mC]*k[5mC]*k[5mC]; antisense) [compound 1076278]
YAP1 (% UTC) [5]: 29 % UTC

1076375 (antisense kT*kA*kT*dA*dA*d[5mC]*dG*dG*dA*dT*dA*dT*dA*k[5mC]*kA*kA) [compound 1076375]
YAP1 (% UTC) [6]: 22 % UTC

1075552 (kG*kA*kT*dT*dA*dT*dA*dA*d[5mC]*dA*dT*dG*d[5mC]*kT*kG*kT; antisense) [Compound 1075552]
YAP1 (% UTC) [1]: 74 % UTC

1074913 (antisense k[5mC]*kA*kT*d[5mC]*d[5mC]*d[5mC]*dG*dA*dG*dT*dG*dG*dG*k[5mC]*kT*kA) [Compound 1074913]
YAP1 (% UTC) [4]: 99 % UTC

1075330 (kG*kA*kG*dG*dG*dA*dA*dA*dA*d[5mC]*dT*dT*dT*kG*k[5mC]*kA; antisense) [Compound 1075330]
YAP1 (% UTC) [2]: 63 % UTC

1074816 (kG*kA*kA*dT*dA*dT*dT*dG*d[5mC]*d[5mC]*dA*d[5mC]*d[5mC]*k[5mC]*kA*k[5mC]; antisense) [Compound 1074816]
YAP1 (% UTC) [1]: 15 % UTC

1075459 (antisense kA*kA*k[5mC]*d[5mC]*dA*dA*dG*dG*dA*dT*dA*dG*dT*k[5mC]*kA*kT) [Compound 1075459]
YAP1 (% UTC) [3]: 37 % UTC

1075938 (kG*kA*kA*dT*dA*dT*dA*dT*dG*dG*dG*dT*dT*kT*k[5mC]*kA; antisense) [Compound 1075938]
YAP1 (% UTC) [2]: 55 % UTC

1075043 (antisense k[5mC]*k[5mC]*k[5mC]*d[5mC]*dA*dA*dA*dA*dG*d[5mC]*d[5mC]*d[5mC]*dT*kA*k[5mC]*kT) [Compound 1075043]
YAP1 (% UTC) [3]: 73 % UTC

1075702 (kG*kA*kG*dG*dA*dA*dG*dG*dG*d[5mC]*dA*d[5mC]*d[5mC]*kT*kT*kT; antisense) [compound 1075702]
YAP1 (% UTC) [5]: 81 % UTC

1074519 (kA*k[5mC]*kT*dA*d[5mC]*dT*dA*dG*dT*d[5mC]*dA*dT*dG*kT*kA*kT; antisense) [compound 1074519]
YAP1 (% UTC) [6]: 45 % UTC

1076257 (k[5mC]*kT*kA*dA*dG*dA*dA*dA*d[5mC]*dT*d[5mC]*dA*dT*kA*kG*kT; antisense) [Compound 1076257]
YAP1 (% UTC) [4]: 54 % UTC

1075991 (kA*kT*kA*dT*dA*dG*dG*dA*d[5mC]*d[5mC]*dA*d[5mC]*dG*kA*k[5mC]*kT; antisense) [compound 1075991]
YAP1 (% UTC) [6]: 62 % UTC

1075427 (antisense kT*kA*kT*dA*dA*dG*dG*d[5mC]*dA*dT*d[5mC]*dT*dT*kG*kG*kA) [Compound 1075427]
YAP1 (% UTC) [3]: 60 % UTC

1074947 (antisense kT*k[5mC]*k[5mC]*dA*dA*dA*dA*d[5mC]*d[5mC]*d[5mC]*dT*dT*dT*kG*kG*kT) [Compound 1074947]
YAP1 (% UTC) [3]: 99 % UTC

1075618 (kT*kT*kT*dT*dA*dA*dG*dA*dA*d[5mC]*dG*dA*d[5mC]*kA*kT*kA; antisense) [Compound 1075618]
YAP1 (% UTC) [2]: 69 % UTC

1075616 (kG*kT*kA*dA*dA*dA*d[5mC]*d[5mC]*dG*dA*dT*dT*dT*kT*kT*k[5mC]; antisense) [Compound 1075616]
YAP1 (% UTC) [1]: 46 % UTC

1075894 (antisense k[5mC]*kT*k[5mC]*dG*dA*dA*dA*dG*d[5mC]*dT*dG*dG*dG*k[5mC]*k[5mC]*k[5mC]) [compound 1075894]
YAP1 (% UTC) [5]: 100 % UTC

1076291 (kG*kA*kT*dT*dA*dA*dT*dG*dG*dT*dG*dG*d[5mC]*kA*kT*kT; antisense) [Compound 1076291]
YAP1 (% UTC) [3]: 4 % UTC

1076064 (kT*kA*kT*dG*dA*dA*d[5mC]*dA*dA*dT*dG*dT*dA*k[5mC]*kT*k[5mC]; antisense) [Compound 1076064]
YAP1 (% UTC) [1]: 5 % UTC

1076151 (kT*kA*kT*dT*dT*dA*dT*dT*dA*dA*d[5mC]*dT*d[5mC]*kA*k[5mC]*kG; antisense) [compound 1076151]
YAP1 (% UTC) [6]: 14 % UTC

1074145 (antisense kA*kA*kG*d[5mC]*dG*dG*d[5mC]*dG*dA*d[5mC]*dG*dG*d[5mC]*kT*kG*k[5mC]) [Compound 1074145]
YAP1 (% UTC) [4]: 73 % UTC

1076407 (antisense kG*kT*kA*dT*dT*dA*dT*dT*dT*dA*dA*dG*dA*k[5mC]*k[5mC]*kT) [compound 1076407]
YAP1 (% UTC) [6]: 22 % UTC

1075735 (kG*kA*kA*dT*d[5mC]*dG*dA*dT*dG*dT*dG*dT*dT*kG*k[5mC]*kG; antisense) [compound 1075735]
YAP1 (% UTC) [6]: 17 % UTC

1075779 (kG*kT*kA*dT*dT*dA*d[5mC]*dA*dA*dA*d[5mC]*dT*dG*kA*kT*kT; antisense) [Compound 1075779]
YAP1 (% UTC) [3]: 28 % UTC

1075011 (antisense kG*k[5mC]*kA*d[5mC]*dA*dA*dT*dA*dA*dT*d[5mC]*dG*dA*kA*k[5mC]*kA) [Compound 1075011]
YAP1 (% UTC) [3]: 44 % UTC
